According to patent US9738670B2, “Pentaaza macrocyclic ring complexes possessing oral bioavailability” (Galera Labs, LLC, priority 2015, dated 2017):

Assays:
[1] = Intraduodenal (id) bioavailability screen in minipigs, oil formulations, vs iv parent dichloro complex; format: in vivo, Gottingen minipig; conditions: id 10 mg/kg, 10% by weight formulation, AUC0->24 h vs iv 1 mg/kg parent chloro complex
Method: Compounds were screened for oral bioavailability by injecting the formulated prodrugs directly into the duodenum (intraduodenal or id administration) of the minipig test subjects, thus bypassing the acidic environment of the stomach and thereby eliminating potentially misleading oral bioavailability results that could arise from alteration of the test article drug in the acid environment of the stomach.
The studies were conducted at Xenometrics LLC (Stillwell, Kans.) and the Id bioavailability was determined using various axial ligand derivative complexes of GC4419, GC4444, GC4403 and GC4401.
*Where the iv dose is 1 mg of test article drug per kilogram body weight of the mini-pig, and the dose administered id is 10 mg of test article drug per kg body weight of the mini-pig.
Male Gottingen minipigs (4-5 mo old, 9-12 kg weight) were purchased from Marshall BioResources and housed at Xenometrics. […] The distal end was exteriorized with a reusable accessible hub (see surgical details below). During a recovery period of at least 2 weeks the minipigs were handled daily to acclimate them to the test procedures, i.e., id dosing and blood collections. For each experiment, each minipig received a test article drug dissolved or suspended in an excipient vehicle. […] All dosing experiments were conducted in fasted animals. Food was withdrawn from the minipigs 16 hours before dosing. The minipigs had ad libitum access to water. Dosed minipigs were allowed access to food 6 hour after dosing. The test article was administered at a dose of 10 mg/kg parent drug in 0.1 m L/kg vehicle (e.g., 1.5 mL in 15 kg minipig) as a bolus injection (˜1 minute) via the id cannula. The actual amount of total test article drug administered varied with the formula weight of the prodrug. An equal volume of excipient vehicle was used to flush the cannula after the test article was administered. Approximately 6 hours later, corn oil was used to flush the cannula. After approximately 24 hours post-dose, the catheter was flushed with sterile saline solution and capped. At the following time-points 0.25, 0.5, 1, 2, 4, 8, 24 and 48 hour post-injection, 2 mL blood samples were collected by cranial vena cava puncture (4 mL Sodium heparin Vacutainer, 20 g 1.5″ needle) after the skin surface was wiped with ethanol. The minipig was placed in a sling in a recumbent position without anesthesia for the collection of blood samples. The minipigs were never used more than once per 7 days for experimentation. The blood samples were kept on ice until processed for plasma. Blood samples were centrifuged at 1200×g for ten minutes at 4° C. and plasma samples were transferred to 96 well plate tubes, capped and stored at −20° C. until shipment on dry ice to the analytical laboratory used for measuring the concentration of drug in the plasma. The concentration of the parent manganese pentaaza macrocylic ring complex (independent of the composition of the axial ligands) was measured in plasma using a validated HPLC/MS/MS method that is linear between 50 ng/mL and 20,000 ng/mL.
The oils used for preparing the dosing solutions were used as supplied from commercial sources. The Capmul MCM (NF) is a mixture of mono/diglycerides of caprylic/capric acids and was supplied by ABITEC Corporation, Janesville, Wis. The Miglyol 812 N is a mixture of caprylic/capric acid triglycerides and was supplied by Cremer Oleo Division, Eatontown, N.J. Labrafil M 2125 CS (NF) is chemically defined to be linoleoyl polyoxyl-6 glycerides NF and was supplied by Gattefosse, SAINT-PRIEST Cedex, France. Peceol is chemically defined to be the monoglyceride, glyceryl monooleate NF, and was supplied by Gattefosse, SAINT-PRIEST Cedex, France. Maisine 35-1 is chemically defined to be the monoglyceride glyceryl monolinoleate (NF) and was supplied by Gattefosse, SAINT-PRIEST Cedex, France. Labrasol (NF) is chemically defined to be caprylocaproyl polyoxyl-8 glycerides NF and was supplied by Gattefosse, SAINT-PRIEST Cedex, France. […]

mouse cancer models = conditions: ip; cited from earlier work
oral mucositis = conditions: intravenous (iv) infusion, patients; cited from earlier work
[2] = test system: VEGFr inhibitor-induced pulmonary disease; conditions: ip, rat; cited from earlier work
[3] = test system: lethal total body irradiation; conditions: ip, adult mice; cited from earlier work
[4] = test system: experimental model of colitis; conditions: intraperitoneal (ip) injection, rats; cited from earlier work
[5] = test system: radiation-induced oral mucositis; conditions: ip, hamster; cited from earlier work
[6] = test system: collagen-induced arthritis; conditions: ip, rat; cited from earlier work

With `[Cl][Mn][Cl].c1cc2nc(c1)CN[C@H]1CCCC[C@@H]1NCCN[C@H]1CCCC[C@@H]1NC2` [GC4419, reference compound] as the molecule, how does the “Mini-Pig BioA” value ([1]; base oil Capmul MCM) read?
The value was 9%.

What about the “Mini-Pig BioA” value ([1]; base oil Labrafil M2125 CS) of the same molecule?
Its value is 7%.

What about the “Mini-Pig BioA” value ([1]; base oil Maisine 35-1) of the same molecule?
The value was 8%.

What about the “Mini-Pig BioA” value ([1]; base oil Miglyol 812N) of the same molecule?
The value was 8%.

And the “Mini-Pig BioA” value ([1]; base oil Peceol)?
Its value is 9%.

What about the “anti-tumor activity of co-administered agents” value (mouse cancer models) of the same molecule?
Its value is “increase the anti-tumor activity of anti-metabolite and anti-mitotic agents”.

And the oral mucositis (oral mucositis)?
The oral mucositis was “reduce oral mucositis”.

What about the pulmonary disease [2] of the same molecule?
Its pulmonary disease is “attenuate VEGFr inhibitor-induced pulmonary disease”.

Which “Mini-Pig BioA” value ([1]; base oil Capmul MCM) does the source give for “Manganese(II)bis-racemic-phenylglycinato[6R-Methyl(4aR,13aR,17aR,21aR)-1,2,3,4,4a,5,6,12,13,13a,14,15,16,17,17a,18,19,20,21,21a-Eicosahydro-11,7-nitrilo-7H-dibenzo[b,h][1,4,7,10] tetraazacycloheptadecine-KN5, KN13, KN18, KN21, KN22]- [GC4716]” here?
The value was 34%.

Which “Mini-Pig BioA” value ([1]; base oil Labrafil M2125 CS) does the source give for “Manganese(II)bis-propionato[6R-Methyl(4aR,13aR,17aR,21aR)-1,2,3,4,4a,5,6,12,13,13a,14,15,16,17,17a,18,19,20,21,21a-Eicosahydro-11,7-nitrilo-7H-dibenzo[b,h][1,4,7,10] tetraazacycloheptadecine-KN5, KN13, KN18, KN21, KN22]- [GC4747]” here?
Its value is 20%.

For “Manganese(II)bis-pivaloato[(4aS,13aS,17aS,21aS)-1,2,3,4,4a,5,6,12,13,13a,14,15,16,17, 17a,18,19,20,21,21a-Eicosahydro-11,7-nitrilo-7H-dibenzo[b,h][1,4,7,10] tetraazacycloheptadecine-KN5, KN13, KN18, KN21, KN22]- [GC4709]”, which “Mini-Pig BioA” value ([1]; base oil Capmul MCM) is on record?
The value was 17%.

And the “Mini-Pig BioA” value ([1]; base oil Labrafil M2125 CS)?
Its value is 22%.

With `[Cl-].[Cl-].[Mn+2].c1cc2nc(c1)CN[C@@H]1CCCC[C@H]1NCCN[C@@H]1CCCC[C@H]1NC2` [GC4403] as the molecule, how does the “Mini-Pig BioA” value ([1]; base oil Capmul MCM) read?
The value was 9%.

What about the radiation damage [3] of the same molecule?
The radiation damage was “attenuate the radiation damage”.

What about the “injury to the colon” value [4] of the same molecule?
The value was “significantly reduce the injury to the colon”.

What about the radiation damage [5] of the same molecule?
The radiation damage was “attenuate the radiation damage”.

And the joint disease [6]?
The joint disease was “prevent joint disease”.

With “Manganese(II)bis-racemic-phenylglycinato[(4aR,13aR,17aR,21aR)-1,2,3,4,4a,5,6,12,13,13a,14,15,16,17,17a,18,19,20,21,21a-Eicosahydro-11,7-nitrilo-7H-dibenzo[b,h][1,4,7,10] tetraazacycloheptadecine-KN5, KN13, KN18, KN21, KN22]- [GC4717]” as the molecule, how does the “Mini-Pig BioA” value ([1]; base oil Capmul MCM) read?
The value was 26%.

Which “Mini-Pig BioA” value ([1]; base oil Capmul MCM) does the source give for “Manganese(II)bis-L--valinato[(4aS,13aS,17aS,21aS)-1,2,3,4,4a,5,6,12,13,13a,14,15,16,17,17a,18,19,20,21,21a- Eicosahydro-11,7-nitrilo-7H-dibenzo[b,h][1,4,7,10] tetraazacyclo-heptadecine-KN5, KN13, KN18, KN21, KN22]- [GC4746]” here?
Its value is 13%.
